Values of other authors in PMC6340882, “Targeting protein kinase CK2 and CDK4/6 pathways with a multi-kinase inhibitor ON108110 suppresses pro-survival signaling and growth in mantle cell lymphoma and T-acute lymphoblastic leukemia” (Oncotarget, 2018).

Test system: mantle cell lymphoma
Set-up: method as in PMID 22383795
Conditions: monotherapy for MCL, patients; cited from earlier work

In the case of `CC(=O)c1c(C)c2cnc(Nc3ccc(N4CCNCC4)cn3)nc2n(C2CCCC2)c1=O` [Palbociclib], the overall response rate is given as 18%.
